Assay results reported in PubChem BioAssay AID2060333 (Molecular Pharmacology Branch, DTP, NCI, 2025).

Test system: 845751-090-R-J2-PDC tumor spheroid viability
Assay: Anticancer human tumor 845751-090-R-J2-PDC patient-derived head and neck squamous carcinoma cell line growth inhibition [IpAb]
Details: spheroids with HUVEC and MSC; for IC50: curve of first compound; for viability, T/C: stronger effect = lower value
Excerpt: Combinatorial screen of targeted agents with ipatasertib and abemaciclib in multi-cell type tumor spheroids
A high-throughput screen of multi-cell type tumor spheroids was designed to identify active combinations of targeted small molecules and ipatasertib or abemaciclib. Complex spheroids include a stromal component modeled by human endothelial cells (HUVEC) and fibroblasts modeled by human mesenchymal stem cells (MSCs). The concentration ranges selected for each drug and investigational agent were based upon clinically achievable concentrations if the clinical Cmax of the agent was known.
Compounds. The drugs and investigational agents: ipatasertib (NSC767898), abemaciclib(NSC768073), selumetinib (NSC741078), trametinib (758246), adavosertib (NSC754352), everolimus (NSC733504), sapanisertib (NSC764658), vemurafenib (NSC761431), venetoclax (NSC766270), copanlisib (NSC809693), apelisib (NSC765974), palbociblib (NSC758247), vemurafenib (NSC761431), dabrafenib (NSC764134), ravoxertinib (NSC781343), BMS-387032 (NSC767048), sotorasib (NSC818433), talazoparib (NSC767125) and afursertib (NSC778305), were obtained from the National Cancer Institute (NCI) Developmental Therapeutics Program Chemical Repository. The FDA-approved anticancer drug set is available from the NCI Developmental Therapeutics Program. […] The stock solutions were prepared in dimethyl sulfoxide (DMSO, Sigma-Aldrich, St. Louis, MO, cat. D2650) at 800-fold the tested concentration and stored at -70 degrees C prior to their use. All drugs and investigational agents were tested over a range starting from a high concentration at or near the clinical Cmax and decreasing in half-log increments. If the clinical Cmax for an agent had not been determined, the highest concentration tested was 10 microM.
NCI60 Cell Culture. NCI60 cell lines were obtained from the NCI Developmental Therapeutics Program Tumor Repository. For each lot of cells, the Repository performed Applied Biosystems AmpFLSTR Identifiler testing with PCR amplification to confirm consistency with the published Identifier STR profile for each cell line. Cells were kept in continuous culture for no more than 20 passages. The optimal seeding densities for each of the cell lines at each time point assessed were determined prior to performing the concentration response studies. Briefly, the NCI60 human tumor lines were grown as monolayers in RPMI 1640 medium supplemented with 10% FBS and 2 mmol/L L-glutamine.
An additional 9 lines were from the NCI60 cell line panel including MDA-MB-231 breast carcinoma, MDA-MB-468 breast carcinoma, MCF7 breast carcinoma, Hs578T breast carcinoma, MALME-3M melanoma, SK-MEL-2 melanoma, SK-OV-3 ovarian carcinoma, DU-145 prostate carcinoma, PC-3 prostate carcinoma, all cell lines along with major genetic alterations are listed on Table 2. Pooled donor human umbilical vein endothelial cells (HUVEC, Lonza, cat. CC-2519) and human mesenchymal stem cells (hMSC, Lonza, cat. PT-2501) were purchased from Lonza (Walkersville, MD).
PDMR cell lines were grown in complete medium (DC medium): Dulbecco's modified Eagle's medium (DMEM)/F12 supplemented with 5% fetal bovine serum (FBS), 2 mM L-glutamine, 100 U/mL penicillin and 100 µg/ml streptomycin, 0.4 µg/ml hydrocortisone, 10 ng/ml epidermal growth factor (EGF) recombinant human protein, 24 µg/mL adenine, and 0.1 mg/mL primocin. During culture from frozen stock vials, PDMR cells were cultured in the same medium containing 10 µM Y-27632 (see Table 3). The PDCs were cultured in complete DMEM/F12 media without 10 microM Y-27632 dihydrochloride for at least two passages prior to the screen. The pooled donor HUVEC and hMSC were cultured in endothelial cell growth medium 2 (PromoCell, Heidelberg, Germany, cat. C-22011) and mesenchymal stem cell growth medium 2 (PromoCell, cat. C-28009), respectively. For all experiments, HUVEC and hMSC were used at passages </=5.
[…]
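Further: spheroids exposed to compounds for 7 days before readout.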
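Wherever viability, T/C is given: CTG3D luminescence normalised so that 100% = DMSO vehicle control.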

Which IC50 (second compound 0.01 µM) does the source give for `CC(=O)c1c(C)c2cnc(Nc3ccc(N4CCNCC4)cn3)nc2n(C2CCCC2)c1=O` + CCN1CCN(Cc2ccc(Nc3ncc(F)c(-c4cc(F)c5nc(C)n(C(C)C)c5c4)n3)nc2)CC1 here?
Its IC50 is > 300 nM.

What about the IC50 (second compound 0.0316 µM) of the same molecule?
Its IC50 is > 300 nM.

And the IC50 (second compound 0.1 µM)?
Its IC50 is > 300 nM.

And the IC50 (second compound 0.316 µM)?
The IC50 was > 300 nM.

And the IC50 (second compound 1 µM)?
Its IC50 is > 300 nM.

And the viability, T/C (second compound 0.01 µM, first compound 0.000949 µM)?
The viability, T/C was 115%.

What about the viability, T/C (second compound 0.01 µM, first compound 0.003 µM) of the same molecule?
Its viability, T/C is 93.8%.

What about the viability, T/C (second compound 0.01 µM, first compound 0.00949 µM) of the same molecule?
The viability, T/C was 84.8%.

What about the viability, T/C (second compound 0.01 µM, first compound 0.03 µM) of the same molecule?
Its viability, T/C is 91%.

And the viability, T/C (second compound 0.01 µM, first compound 0.0949 µM)?
Its viability, T/C is 93.4%.

What about the viability, T/C (second compound 0.01 µM, first compound 0.3 µM) of the same molecule?
The viability, T/C was 76.7%.

And the viability, T/C (second compound 0.0316 µM, first compound 0.000949 µM)?
The viability, T/C was 77.2%.

And the viability, T/C (second compound 0.0316 µM, first compound 0.003 µM)?
Its viability, T/C is 62.8%.

What about the viability, T/C (second compound 0.0316 µM, first compound 0.00949 µM) of the same molecule?
Its viability, T/C is 63.6%.

What about the viability, T/C (second compound 0.0316 µM, first compound 0.03 µM) of the same molecule?
Its viability, T/C is 73.9%.

What about the viability, T/C (second compound 0.0316 µM, first compound 0.0949 µM) of the same molecule?
The viability, T/C was 65.5%.

And the viability, T/C (second compound 0.0316 µM, first compound 0.3 µM)?
Its viability, T/C is 59.2%.

What about the viability, T/C (second compound 0.1 µM, first compound 0.000949 µM) of the same molecule?
The viability, T/C was 49.8%.

And the viability, T/C (second compound 0.1 µM, first compound 0.003 µM)?
The viability, T/C was 71.8%.

What about the viability, T/C (second compound 0.1 µM, first compound 0.00949 µM) of the same molecule?
The viability, T/C was 75.4%.

And the viability, T/C (second compound 0.1 µM, first compound 0.03 µM)?
Its viability, T/C is 71.2%.

And the viability, T/C (second compound 0.1 µM, first compound 0.0949 µM)?
The viability, T/C was 75.9%.

What about the viability, T/C (second compound 0.1 µM, first compound 0.3 µM) of the same molecule?
Its viability, T/C is 65.8%.

And the viability, T/C (second compound 0.316 µM, first compound 0.000949 µM)?
Its viability, T/C is 53.1%.

And the viability, T/C (second compound 0.316 µM, first compound 0.003 µM)?
The viability, T/C was 69.7%.

And the viability, T/C (second compound 0.316 µM, first compound 0.00949 µM)?
The viability, T/C was 88%.

What about the viability, T/C (second compound 0.316 µM, first compound 0.03 µM) of the same molecule?
The viability, T/C was 81.7%.

And the viability, T/C (second compound 0.316 µM, first compound 0.0949 µM)?
The viability, T/C was 61%.

And the viability, T/C (second compound 0.316 µM, first compound 0.3 µM)?
The viability, T/C was 50.6%.

What about the viability, T/C (second compound 1 µM, first compound 0.000949 µM) of the same molecule?
The viability, T/C was 90.4%.

And the viability, T/C (second compound 1 µM, first compound 0.003 µM)?
Its viability, T/C is 86.4%.

What about the viability, T/C (second compound 1 µM, first compound 0.00949 µM) of the same molecule?
The viability, T/C was 99.5%.

And the viability, T/C (second compound 1 µM, first compound 0.03 µM)?
Its viability, T/C is 77.7%.

And the viability, T/C (second compound 1 µM, first compound 0.0949 µM)?
Its viability, T/C is 70.9%.

What about the viability, T/C (second compound 1 µM, first compound 0.3 µM) of the same molecule?
Its viability, T/C is 53.6%.
